Patent EP4759807A1, “PROTEOLYSIS TARGETING CHIMERA COMPOUND FOR DEGRADING IRAK4 AND USE THEREOF” (Shenzhen Zhongge Biological Technology Co., Ltd., priority 2023, dated 2025)
Where a name gives a salt, the structure may show the parent alone.

What was measured:
IRAK4 [1] = molecular target: T1, IRAK4 (Homo sapiens, UniProt Q9NWZ3); assay: WB detection of proteolysis (Western Blot, THP-1 cells); type: cell-based; conditions: Western Blot, THP-1 cells, 24 h; for DC50: read-out: DC50; for Dmax: read-out: Dmax
T1 sequence (Q9NWZ3 1-460): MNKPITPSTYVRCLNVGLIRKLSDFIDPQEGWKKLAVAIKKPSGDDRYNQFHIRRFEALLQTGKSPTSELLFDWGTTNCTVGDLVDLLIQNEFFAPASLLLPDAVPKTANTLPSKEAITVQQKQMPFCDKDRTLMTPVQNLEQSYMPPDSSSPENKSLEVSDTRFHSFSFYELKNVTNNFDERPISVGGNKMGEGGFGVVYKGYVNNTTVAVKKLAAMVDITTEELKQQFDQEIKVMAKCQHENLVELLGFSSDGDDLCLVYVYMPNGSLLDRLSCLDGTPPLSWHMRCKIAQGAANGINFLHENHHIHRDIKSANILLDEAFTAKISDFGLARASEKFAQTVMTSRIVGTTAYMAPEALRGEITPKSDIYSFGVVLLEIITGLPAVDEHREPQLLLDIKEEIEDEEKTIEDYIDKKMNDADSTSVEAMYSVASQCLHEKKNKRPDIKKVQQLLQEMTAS
Procedure: The degradation level of IRAK4 in THP-1 cells was detected by Western Blot technology. […] 1000X gradient dilution stock of the compound was prepared, with the highest concentration set at 300 µM. The dilution was carried out using DMSO in a 1:3 dilution factor, yielding a total of 9 concentrations. 1000X gradient dilutions of the compound were added to a 12-well plate, with 1 µL per well. Incubation was performed under conditions of 37°C and 5% CO2 for 24 h, and the cells were collected into 2 mL of centrifuge tubes and centrifuged at 5000 rpm for 5 min, and the supernatant was removed. 100 µL of RIPA lysis buffer (Beyotime, P0013C) was added and mixed uniformly, then the cells were lysed on ice for 10 min, centrifuged at 4°C at 14000 rpm for 10 min, and the supernatant was collected. Protein content was determined with BCA (Solarbio, PC0020-10*50T). 75 µL of the supernatant was taken, and 25 µL of NuPAGE LDS Sample Buffer (4X) (Thermo B0007) was added to each tube (5% β-mercaptoethanol was added before use) to prepare samples, and the samples were boiled in a metal bath at 100°C for 5 min. […] 1x NuPAGE™ MOPS SDS electrophoresis buffer (20X) (Invitrogen, NP0001) was prepared, and the electrophoresis instrument was set to a constant current of 300 mA for 100 min, and the protein was transferred to a PVDF membrane (Millipore, IPVH00010). […] The membrane was washed three times with 1x TBST (Elabscience E-BC-R335) the next day, each time for 5 min. […] The membrane was washed three times with TBST, each time for 5 min. The Odyssey imaging system Li-cor Odyssey CLx was used to detect signals and analyze data. GraphPad (Prism 9.3) software was used to perform analysis for data, and non-linear fitting (non-liner inhibitor (Bell-shaped)) and four parameters (4 parameter) were used, and the parameters was as follows: Span1 = Plateau1−Dip [formula] Span2 = Plateau2−Dip [formula] Section1 = Span1/(1+10^(∧)((LogEC50_1−X)*nH1)) [formula] Section2 = Span2/(1+10^(∧)((X−LogEC50_2)*nH2)) [formula]
The equation was as follows: Y=Dip+Section1+Section2.

IRAK4 [2] = molecular target: T1, IRAK4; assay: Hibit fluorescence detection of proteolysis (IRAK4-HiBiT in HEK293T cells); type: cell-based; design: host or cells: HEK293T (ATCC)
Outline: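 Degradation read-out: luminescence from lytic HiBiT detection (15 min, room temperature) after 24 h compound exposure (37 °C, 5% CO2) of HEK293T cells transiently expressing IRAK4 fused to a HiBiT tag. Data fitted to a bell-shaped four-parameter model giving two EC50 values.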

[3] = IRAK4-HiBiT, HEK293T cells, 24 h, read-out: DC50
[4] = IRAK4-HiBiT, HEK293T cells, 24 h

Row | Structure (SMILES) | DC50 (IRAK4 [1]) | Dmax (IRAK4 [1]) | Dmax (IRAK4 [2]; HEK-293T) | DC50 (IRAK4 [2]; [4]) | also measured
1 | Cn1c(=O)n(C2CCC(=O)NC2=O)c2cccc(N3CCCN(C[C@H]4CC[C@H](n5cc(-n6cc(-c7ccc8cc(C(N)=O)cnn78)nn6)c(C(F)F)n5)CC4)CC3)c21 (relative stereo) [Example 289, 7-(1-(3-(difluoromethyl)-1-((1R,4R)-4-((4-(1-(2,6-dioxopiperidin-3-yl)-3-methyl-2-oxo-2,3-dihydro-1H-benzoimidazol-4-yl)-1,4-diazepan-1-yl)methyl)cyclohexyl)-1H-pyrazol-4-yl)-1H-1,2,3-triazol-4-yl)pyrrolo[1,2-b]pyridazine-3-carboxamide] | < 10 nM | < 60% | – | – | –
2 | Cl.Cn1c(=O)n(C2CCC(=O)NC2=O)c2cccc(N3CCN(C4CCN(C[C@H]5CC[C@H](n6cc(-n7cc(-c8cnn9ccc(N%10CCNCC%10)nc89)nn7)c(C(F)F)n6)CC5)CC4)CC3)c21 (some centres unmarked) [Example 131, 3-(4-(4-(1-(1r,4r)-4-(3-difluoromethyl)-4-(4-(5-(piperazin-1-yl)pyrazolo[1,5-a]pyrimidin-3-yl)-1H-1,2,3-triazol-1-yl)-1H-pyrazol-1-yl)cyclohexyl)methyl)piperidin-4-yl)piperazin-1-yl)-3-methyl-2-oxo-2,3-dihydro-1H-benzoimidazol-1-yl)piperidine-2,6-dione hydrochloride] | – | – | – | – | DC50 (IRAK4 [2]; [3]): 0.5 to 1 nM
3 | Cl.Cn1c(=O)n(C2CCC(=O)NC2=O)c2cccc(N3CCN(C4CCN(C[C@H]5CC[C@H](n6cc(-n7cc(-c8cnn9ccc(N%10CCNCC%10)nc89)nn7)c(C(F)F)n6)CC5)CC4)CC3)c21 (some centres unmarked) [Example 131] | – | – | – | – | Dmax (IRAK4 [2]; [4]): A (Dmax ≥ 80%)
4 | Cn1c(=O)n(C2CCC(=O)NC2=O)c2cccc(N3CCN(C4CCN(C[C@H]5CC[C@H](n6cc(-n7cc(-c8cnn9ccc(NCCC(C)(C)O)nc89)nn7)c(C(F)F)n6)CC5)CC4)CC3)c21 (some centres unmarked) [Example 133] | – | – | > 80% | < 0.5 nM | –
5 | Cn1c(=O)n(C2CCC(=O)NC2=O)c2cccc(N3CCC4(CCN(C[C@H]5CC[C@H](n6cc(-n7cc(-c8cnn9ccc(NCCC(C)(C)O)nc89)nn7)c(C(F)F)n6)CC5)C4)CC3)c21 (some centres unmarked) [Example 134] | – | – | > 80% | < 0.5 nM | –
6 | Cn1c(=O)n(C2CCC(=O)NC2=O)c2cccc(N3CCC4(CCN(CC5CCC(n6cc(-n7cc(-c8cnn9ccc(N%10CCC(O)CC%10)nc89)nn7)c(C(F)F)n6)CC5)CC4)C3)c21 (centres unmarked) [Example 137, 3-(4-(8-(((1r,4r)-4-(3-(difluoromethyl)-4-(4-(5-(4-hydroxypiperidin-1-yl))pyrazolo[1,5-a]pyrimidin-3-yl)-1H-1,2,3-triazol-1-yl)-1H-pyrazol-1-yl)cyclohexyl)methyl)-2,8-diazaspiro[4.5]dec-2-yl)-3-methyl-2-oxo-2,3-dihydro-1H-benzo[d]imidazol-1-yl)piperidine-2,6-dione] | – | – | – | – | Dmax (IRAK4 [2]; [4]): A (Dmax ≥ 80%); DC50 (IRAK4 [2]; [3]): < 0.5 nM
7 | Cn1c(=O)n(C2CCC(=O)NC2=O)c2cccc(N3CCN(C4CCN(C[C@H]5CC[C@H](n6cc(-n7cc(-c8cnn9ccc(N%10CCC(O)CC%10)nc89)nn7)c(C(F)F)n6)CC5)CC4)CC3)c21 (some centres unmarked) [Example 138] | – | – | > 80% | < 0.5 nM | –
8 | Cn1c(=O)n(C2CCC(=O)NC2=O)c2cccc(N3CCC4(CCN(C[C@H]5CC[C@H](n6cc(-n7cc(-c8cnn9ccc(N%10CCC[C@H](O)C%10)nc89)nn7)c(C(F)F)n6)CC5)CC4)C3)c21 (some centres unmarked) [Example 143] | – | – | > 80% | < 0.5 nM | –
9 | Cn1c(=O)n(C2CCC(=O)NC2=O)c2cccc(N3CCN(C4CCN(C[C@H]5CC[C@H](n6cc(-n7cc(-c8cnn9ccc(N[C@H]%10CCCC[C@H]%10O)nc89)nn7)c(C(F)F)n6)CC5)CC4)CC3)c21 (some centres unmarked) [Example 149] | – | – | > 80% | < 0.5 nM | –
10 | Cn1c(=O)n(C2CCC(=O)NC2=O)c2cccc(N3CCC(N4CCN(C[C@H]5CC[C@H](n6cc(-n7cc(-c8cnn9ccc(N%10CCC[C@H](N)C%10)nc89)nn7)c(C(F)F)n6)CC5)CC4)CC3)c21 (stereo partly drawn) [Example 150, 3-(4-(4-(1R,4R)-4-(4-(4-(5-(S)-3-aminopiperidin-1-yl)pyrazolo[1,5-a]pyrimidin-3-yl)-1H-1,2,3-triazol-1-yl)-3-(difluoromethyl)-1H-pyrazol-1-yl)cyclohexyl)methyl)piperazin-1-yl)piperidin-1-yl)-3-methyl-2-oxo-2,3-dihydro-1H-benzoimidazol-1-yl)piperidine-2,6-dione hydrochloride] | – | – | > 80% | < 0.5 nM | –
11 | Cn1c(=O)n(C2CCC(=O)NC2=O)c2cccc(N3CCC4(CCN(C[C@H]5CC[C@H](n6cc(-n7cc(-c8cnn9ccc(N[C@@H]%10CCCC[C@@H]%10O)nc89)nn7)c(C(F)F)n6)CC5)CC4)C3)c21 (some centres unmarked) [Example 152] | – | – | > 80% | < 0.5 nM | –
12 | C[C@H]1CN(c2cccc3c2n(C)c(=O)n3C2CCC(=O)NC2=O)CCN1C[C@H]1CC[C@H](n2cc(-n3cc(-n4ccc5cc(C(N)=O)cnc54)nn3)c(C(F)F)n2)CC1 (some centres unmarked) [Example 156] | – | – | > 80% | < 0.5 nM | –
13 | Cn1nc(N2CCC(=O)NC2=O)c2ccc(N3CCC(N4CCN(C[C@H]5CC[C@H](n6cc(-n7cc(-c8cnn9ccc(N[C@@H]%10CCCC[C@@H]%10O)nc89)nn7)c(C(F)F)n6)CC5)CC4)CC3)cc21 [Example 161] | > 30 nM | < 60% | – | – | –
14 | C[C@H]1CN(C[C@H]2CC[C@H](n3cc(-n4cc(-c5cnn6ccc(N[C@@H]7CCCC[C@@H]7O)nc56)nn4)c(C(F)F)n3)CC2)CCN1C1CCN(c2cccc3c2n(C)c(=O)n3C2CCC(=O)NC2=O)CC1 (some centres unmarked) [Example 166] | < 10 nM | > 70% | – | – | –
15 | Cn1c(=O)n(C2CCC(=O)NC2=O)c2cccc(N3CCC(CN4CCC5(CCC(n6cc(-n7cc(-c8cnn9ccc(N[C@@H]%10CCCC[C@@H]%10O)nc89)nn7)c(C(F)F)n6)CC5)CC4)CC3)c21 (stereo partly drawn) [Example 171, 3-(4-(4-((9-(3-(difluoromethyl)-4-(4-(5-(((1R,2S)-2-hydroxycyclohexyl)amino)pyrazolo[1,5-a]pyrimidin-3-yl)-1H-1,2,3-triazol-1-yl)-1H-pyrazol-1-yl]-3-azaspiro[5.5]undecan-3-yl)methyl)piperidin-1-yl)-3-methyl-2-oxo-2,3-dihydro-1H-benzo[d]imidazol-1-yl)piperidine-2,6-dione] | < 10 nM | > 70% | – | – | –
16 | Cn1c(=O)n(C2CCC(=O)NC2=O)c2cccc(N3CCC(CN4CCC5(CCC(n6cc(-n7cc(-c8ccc9cc(C(N)=O)cnn89)nn7)c(C(F)F)n6)CC5)CC4)CC3)c21 (centres unmarked) [Example 172] | < 10 nM | > 70% | – | – | –
17 | Cn1c(=O)n(C2CCC(=O)NC2=O)c2cccc(N3CCC(N4CCN(C[C@H]5CC[C@H](n6cc(-n7cc(-c8cnn9ccc(N%10CCOC[C@@H]%10CO)nc89)nn7)c(C(F)F)n6)CC5)CC4)CC3)c21 (some centres unmarked) [Example 173] | < 10 nM | > 70% | – | – | –
18 | Cn1c(=O)n(C2CCC(=O)NC2=O)c2cccc(N3CCC4(CCN(C[C@H]5CC[C@H](n6cc(-n7cc(-c8cnn9ccc(N%10CCOC[C@@H]%10CO)nc89)nn7)c(C(F)F)n6)CC5)CC4)CC3)c21 (some centres unmarked) [Example 174] | < 10 nM | > 70% | – | – | –
19 | Cn1c(=O)n(C2CCC(=O)NC2=O)c2cccc(N3CCN(C[C@H]4CC[C@H](n5cc(-n6cc(-c7cnn8ccc(N[C@@H]9CCCC[C@@H]9O)nc78)nn6)c(C(F)F)n5)CC4)CC3)c21 (some centres unmarked) [Example 268] | – | – | 70 to 80% | 0.5 to 1 nM | –
20 | C[C@H]1CN(c2cccc3c2n(C)c(=O)n3C2CCC(=O)NC2=O)CCN1C[C@H]1CC[C@H](n2cc(-n3cc(-c4cnn5ccc(N6CCC(C)(O)CC6)nc45)nn3)c(C(F)F)n2)CC1 (some centres unmarked) [Example 284] | – | – | 70 to 80% | < 0.5 nM | –
